Molecules are shown by their SMILES. ≈ marks a conversion by molar mass, not a printed value. Calls of active or inactive are those of the source. The calls are words filed in the database; no cut-off is given here. A value given as a limit tells only on which side of the number the result lay.

As a reminder, the MIC50 is an inhibitory concentration at the 50% level, which refers to growth in some studies and to a panel of isolates in others. The term IC50 denotes the midpoint of a concentration-inhibition curve.

The subject of data set [1] is [Candida] auris. Kind of data set: Antifungal activity against fluconazole resistant Candida auris 887 assessed as inhibition of fungal growth incubated for 48 hrs by CLSI protocol based microbroth dilution method. The format is functional. The following applies: Candidozyma auris. For orientation: Dilution methods test growth across graded concentrations, often in twofold steps.

The test system of data set [2] is [Candida] auris. The data set is described as follows: Antifungal activity against fluconazole resistant Candida auris 888 assessed as inhibition of fungal growth incubated for 48 hrs by CLSI protocol based microbroth dilution method. Type of data set: functional. The following applies: Candidozyma auris.
Data set [3] relates to [Candida] auris. Kind of data set: Antifungal activity against fluconazole resistant Candida auris D12 assessed as inhibition of fungal growth incubated for 48 hrs by CLSI protocol based microbroth dilution method. The format is functional. Conditions: Candidozyma auris.
The subject of data set [4] is [Candida] auris. Kind of data set: Antifungal activity against fluconazole resistant Candida auris BS12372 assessed as inhibition of fungal growth incubated for 48 hrs by CLSI protocol based microbroth dilution method. Type of data set: functional. Conditions: Candidozyma auris.
The subject of data set [5] is [Candida] auris. The data set is described as follows: Antifungal activity against fluconazole resistant Candida auris 789 assessed as inhibition of fungal growth incubated for 48 hrs by CLSI protocol based microbroth dilution method. The following applies: Candidozyma auris. The format is functional.
For data set [6], the system named is [Candida] auris. The data set is described as follows: Antifungal activity against fluconazole resistant Candida auris 791 assessed as inhibition of fungal growth incubated for 48 hrs by CLSI protocol based microbroth dilution method. Conditions: Candidozyma auris. The format is functional.
Data set [7] in a line: Hemolytic activity in rabbit RBC assessed as hemolysis at 4 ug/ml incubated for 1 hrs by absorbance based assay relative to control. The format is toxicity, cell-based, Oryctolagus cuniculus, Erythrocyte. Conditions: rabbit red blood cells, at 4 µg/mL, read-out: Activity.
Data set [8] relates to Candida albicans. The data set is described as follows: Antifungal activity against Candida albicans SC5314 assessed as inhibition of fungal growth incubated for 24 hrs by CLSI protocol based microbroth dilution method. The format is functional.
The subject of another data set is Candida parapsilosis. Kind of data set: Antifungal activity against Candida parapsilosis 22019 assessed as inhibition of fungal growth incubated for 24 hrs by CLSI protocol based microbroth dilution method. The format is functional. The following applies: Lodderomyces parapsilosis.
The subject of data set [9] is Candida tropicalis. Kind of data set: Antifungal activity against Candida tropicalis 2718 assessed as inhibition of fungal growth incubated for 24 hrs by CLSI protocol based microbroth dilution method. The format is functional.
The subject of a further data set is Pichia kudriavzevii. The data set is described as follows: Antifungal activity against Candida krusei 4946 assessed as inhibition of fungal growth incubated for 24 hrs by CLSI protocol based microbroth dilution method. Type of data set: functional.
Another data set concerns Nakaseomyces glabratus. The data set is described as follows: Antifungal activity against Candida glabrata 537 assessed as inhibition of fungal growth incubated for 48 hrs by CLSI protocol based microbroth dilution method. Type of data set: functional.
In a further data set the test system is Cryptococcus neoformans. Kind of data set: Antifungal activity against Cryptococcus neoformans H99 assessed as inhibition of fungal growth incubated for 72 hrs by CLSI protocol based microbroth dilution method. The format is functional.
For a further data set, the system named is Aspergillus fumigatus. Kind of data set: Antifungal activity against Aspergillus fumigatus 7544 assessed as inhibition of fungal growth incubated for 48 hrs by CLSI protocol based microbroth dilution method. Type of data set: functional.
In data set [10] the test system is Candida albicans. The data set is described as follows: Antifungal activity against Candida albicans SC5314 assessed as inhibition of fungal growth at 0.0156 ug/ml incubated for 24 hrs by plate reader analysis. Conditions: dose 0.0156 µg/ml. Type of data set: functional, organism-based.
Data set [11] relates to Candida tropicalis. Kind of data set: Antifungal activity against Candida tropicalis 2718 assessed as inhibition of fungal growth at 32 ug/ml incubated for 24 hrs by plate reader analysis. The format is functional, organism-based. Conditions: dose 32.0 µg/ml.
A further data set addresses T1, Cytochrome P450 1A2 (Homo sapiens, UniProt P05177).
T1 sequence (P05177 whole entry): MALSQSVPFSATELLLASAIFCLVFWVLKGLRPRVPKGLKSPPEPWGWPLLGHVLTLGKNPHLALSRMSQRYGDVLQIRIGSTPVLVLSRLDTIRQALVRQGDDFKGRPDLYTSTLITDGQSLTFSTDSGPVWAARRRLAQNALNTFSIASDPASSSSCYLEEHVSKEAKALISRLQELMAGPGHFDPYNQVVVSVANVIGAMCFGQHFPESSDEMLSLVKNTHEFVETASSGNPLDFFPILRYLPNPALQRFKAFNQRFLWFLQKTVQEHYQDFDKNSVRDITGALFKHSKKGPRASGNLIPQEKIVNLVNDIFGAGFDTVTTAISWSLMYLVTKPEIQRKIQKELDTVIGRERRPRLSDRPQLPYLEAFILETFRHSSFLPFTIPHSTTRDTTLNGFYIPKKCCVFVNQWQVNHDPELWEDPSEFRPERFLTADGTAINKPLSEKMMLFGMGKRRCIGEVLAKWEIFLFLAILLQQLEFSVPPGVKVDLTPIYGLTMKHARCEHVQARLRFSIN
The data set is described as follows: Inhibition of CYP1A2 in human liver microsomes using phenacetin as substrate in presence of NADPH by LC-MS/MS analysis.

In data set [12] the test system is Candida albicans. Kind of data set: Antifungal activity against Candida albicans SC5314 infected in ICR mouse model assessed as fungal burden in kidney at 1 mg/kg/day, po pre-infected with fungi for 2 hrs followed by compound administration and measured after 48 hrs (reference value: 3.89 Log10CFU/g). Type of data set: functional.
Data set [13] has as its system Candida albicans. The data set is described as follows: Antifungal activity against Candida albicans SC5314 infected in ICR mouse model assessed as median survival time at 1 mg/kg/day, po pre-infected with fungi for 2 hrs followed by compound administration and measured after 48 hrs (reference value: 3.5 days). Type of data set: functional.
Another data set concerns the target Cytochrome P450 2C9 (Homo sapiens, UniProt P11712).
A further data set has as its target Cytochrome P450 2C19 (Homo sapiens, UniProt P33261).
The target in a further data set is Cytochrome P450 2D6 (Homo sapiens, UniProt P10635).
Cytochrome P450 2D6, sequence (P10635 whole entry): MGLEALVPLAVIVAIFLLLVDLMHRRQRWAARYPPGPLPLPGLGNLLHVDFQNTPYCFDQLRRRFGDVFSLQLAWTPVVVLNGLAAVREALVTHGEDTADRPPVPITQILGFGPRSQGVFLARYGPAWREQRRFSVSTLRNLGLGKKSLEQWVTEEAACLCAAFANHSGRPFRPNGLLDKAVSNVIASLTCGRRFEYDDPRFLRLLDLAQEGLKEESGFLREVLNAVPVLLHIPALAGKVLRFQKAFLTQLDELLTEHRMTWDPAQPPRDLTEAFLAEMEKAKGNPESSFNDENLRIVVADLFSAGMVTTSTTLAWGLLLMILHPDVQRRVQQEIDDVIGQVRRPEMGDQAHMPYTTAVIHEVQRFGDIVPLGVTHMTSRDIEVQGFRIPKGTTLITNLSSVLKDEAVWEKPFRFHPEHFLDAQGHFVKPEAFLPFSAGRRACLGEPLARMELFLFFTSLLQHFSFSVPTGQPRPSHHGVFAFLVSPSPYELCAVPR
A further data set addresses Cytochrome P450 3A4 (Homo sapiens, UniProt P08684).

Cytochrome P450 3A4, sequence (P08684 whole entry): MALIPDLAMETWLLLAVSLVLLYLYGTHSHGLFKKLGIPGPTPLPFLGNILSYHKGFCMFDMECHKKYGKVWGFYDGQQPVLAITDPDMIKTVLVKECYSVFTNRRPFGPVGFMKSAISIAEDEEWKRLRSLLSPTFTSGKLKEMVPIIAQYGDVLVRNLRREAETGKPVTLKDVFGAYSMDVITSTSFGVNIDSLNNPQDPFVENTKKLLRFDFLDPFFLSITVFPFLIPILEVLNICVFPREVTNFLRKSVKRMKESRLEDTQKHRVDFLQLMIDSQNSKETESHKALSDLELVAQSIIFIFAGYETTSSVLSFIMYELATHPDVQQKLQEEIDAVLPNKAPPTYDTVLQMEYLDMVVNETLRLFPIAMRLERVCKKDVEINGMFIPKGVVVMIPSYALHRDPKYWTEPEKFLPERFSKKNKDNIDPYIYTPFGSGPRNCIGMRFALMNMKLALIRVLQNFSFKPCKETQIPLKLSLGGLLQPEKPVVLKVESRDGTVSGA
Cytochrome P450 2C19, sequence (P33261 whole entry): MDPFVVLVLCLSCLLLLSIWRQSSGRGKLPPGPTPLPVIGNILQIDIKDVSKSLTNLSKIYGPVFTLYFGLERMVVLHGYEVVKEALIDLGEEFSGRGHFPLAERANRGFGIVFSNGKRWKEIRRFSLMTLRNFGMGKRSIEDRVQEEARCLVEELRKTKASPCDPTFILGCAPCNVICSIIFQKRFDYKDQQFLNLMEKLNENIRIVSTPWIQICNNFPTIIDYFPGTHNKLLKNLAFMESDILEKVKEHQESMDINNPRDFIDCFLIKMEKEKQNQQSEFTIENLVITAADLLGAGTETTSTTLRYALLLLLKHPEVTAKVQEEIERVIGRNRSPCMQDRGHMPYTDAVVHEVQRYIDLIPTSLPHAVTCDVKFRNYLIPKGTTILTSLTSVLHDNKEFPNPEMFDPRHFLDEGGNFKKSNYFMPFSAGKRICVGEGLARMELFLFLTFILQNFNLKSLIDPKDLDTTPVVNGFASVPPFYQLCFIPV
Cytochrome P450 2C9, sequence (P11712 whole entry): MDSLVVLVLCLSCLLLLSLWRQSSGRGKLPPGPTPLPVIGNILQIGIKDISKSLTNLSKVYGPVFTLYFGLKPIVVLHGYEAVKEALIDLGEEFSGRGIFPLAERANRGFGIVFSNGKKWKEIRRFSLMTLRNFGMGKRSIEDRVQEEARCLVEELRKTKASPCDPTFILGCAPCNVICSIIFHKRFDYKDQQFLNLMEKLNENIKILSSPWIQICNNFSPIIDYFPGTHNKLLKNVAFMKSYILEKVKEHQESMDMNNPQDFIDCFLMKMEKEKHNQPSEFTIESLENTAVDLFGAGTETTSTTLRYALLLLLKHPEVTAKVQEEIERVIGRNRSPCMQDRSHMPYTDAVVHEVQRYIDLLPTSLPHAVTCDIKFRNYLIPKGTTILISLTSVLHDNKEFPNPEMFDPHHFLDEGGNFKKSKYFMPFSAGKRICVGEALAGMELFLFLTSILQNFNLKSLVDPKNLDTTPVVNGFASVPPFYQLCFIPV

For `C[C@@H]1[C@H](O)[C@@H](C)/C=C/C=C/C=C/C=C/C=C/C=C/C=C/[C@H](O[C@@H]2O[C@H](C)[C@@H](O)[C@H](N)[C@@H]2O)C[C@@H]2O[C@](O)(C[C@@H](O)C[C@@H](O)[C@H](O)CC[C@@H](O)C[C@@H](O)CC(=O)O[C@H]1C)C[C@H](O)[C@H]2C(=O)O` [AMPHOTERICIN B], the MIC50 in data set [Candida] auris [1] was 2 µg/mL (≈ 2.16 µM); in [Candida] auris [2], 2 µg/mL (≈ 2.16 µM); in data set [Candida] auris [3], 4 µg/mL (≈ 4.33 µM); in data set [Candida] auris [4] it was 2 µg/mL (≈ 2.16 µM); in data set [Candida] auris [5], 2 µg/mL (≈ 2.16 µM); in [Candida] auris [6], 4 µg/mL (≈ 4.33 µM). Also, in [7], the hemolysis at 1 h, 4 ug/ml is greater than 50%.

Turning to `C[C@@H](n1cnc2cc(Cl)ccc2c1=O)[C@](O)(Cn1cncn1)c1ccc(F)cc1F` [ALBACONAZOLE], the MIC50 with Candida albicans [8] is less than 0.008 µg/mL; in the data set with Candida parapsilosis it was less than 0.008 µg/mL; with Candida tropicalis [9], less than 0.008 µg/mL; in the data set with Pichia kudriavzevii, 0.125 µg/mL (≈ 0.289 µM); with Nakaseomyces glabratus it was less than 0.008 µg/mL; in the data set with Cryptococcus neoformans it was less than 0.008 µg/mL. Besides, the MIC50 in the data set with Aspergillus fumigatus amounted to 0.25 µg/mL (≈ 0.579 µM); in data set [Candida] auris [1] it was 0.5 µg/mL (≈ 1.16 µM); in [Candida] auris [2] it was 0.5 µg/mL (≈ 1.16 µM); in data set [Candida] auris [3] it was 0.5 µg/mL (≈ 1.16 µM); in data set [Candida] auris [4], 0.25 µg/mL (≈ 0.579 µM); in data set [Candida] auris [5] it was 0.5 µg/mL (≈ 1.16 µM). Further, the MIC50 in data set [Candida] auris [6] amounted to 0.5 µg/mL (≈ 1.16 µM). For the same compound, the result with Candida albicans [10] and in the data set on Candida tropicalis [11] was Active. The IC50 on Cytochrome P450 1A2 amounted to 60.3 µM; against Cytochrome P450 2C9, 10.4 µM; on Cytochrome P450 2C19 it was 13 µM; against Cytochrome P450 2D6, 31.7 µM; against Cytochrome P450 3A4, 0.04 µM. The Activity in the data set with Candida albicans [12] worked out at 3.54 log10CFU/g. Further, in the data set on Candida albicans [13], the MST was 3.5 days.

(Values after ChEMBL document CHEMBL5543144, “Discovery of a Novel Potent Tetrazole Antifungal Candidate with High Selectivity and Broad Spectrum” (J Med Chem, 2024).)
